Patent US5674849A, “Anti-viral compositions” (priority 1995, dated 1997)

Test system: HIV-1 strain NL4-3
Assay: p24 antigen inhibition in HIV-1 infected HUT-78 cells
Format: cell-based
Settings: for Expected % inhibition: assuming additive effect; for Observed % inhibition: p24, day 9
Experimental: Control cells were pretreated in 3.5 ml maintenance media under the same conditions.
The tubes were centrifuged at 1200 rpm for 5 minutes to pellet the cells and each pellet was resuspended in 1 ml of stock HIV-1 strain NL4-3 (obtained from AIDS Research and Reference Reagent Program, Rockville, Md.) to obtain an MOI (multiplicity of infection) of about 0.05. The cells were incubated at 37° C. for 1 hour to allow viral adsorption to occur. […] These cells were centrifuged as above, the resulting pellets were resuspended in 1 ml of media and incubated for 1 hour at 37° C.
AZT (Burroughs Wellcome Co.) thawed from sterile stock aliquots was serially diluted in media and dispensed at a volume of 100 μl per well of microtiter plate for the cytotoxicity control wells, compound color control wells and the test wells. Treated and untreated infected and uninfected cells were dispensed at a volume of 100 μl per well. […]
The plates were incubated by 37° C. in 5% CO2.
On the 9th day, 20 μl supernatant was removed from above settled cells in the Test, Virus Control and Cell Control wells. The supernatant was assayed for the presence of p24 antigen using a Coulter Corporation p24 Antigen Test Kit in accordance with the manufacturter's directions.
% Observed Inhibition=[(VC-Test)/(VC)]×100
where VC is the mean p24 of the Virus Control wells; and
Test in the mean p24 of the Test wells.
% Expected Inhibition=X+Y(100-X)
Y is observed % inhibition of AZT.

Compound `Cc1cn([C@H]2C[C@H](N=[N+]=[N-])[C@@H](CO)O2)c(=O)[nH]c1=O` [AZT, azidothymidine, reference compound] has an Expected % inhibition (AZT 10 nM, 4C 0 μM) of -406.1%, an Observed % inhibition (AZT 10 nM, 4C 0 μM) of -406.1% and an Expected % inhibition (AZT 30 nM, 4C 0 μM) of -437.4%. For the same compound, the Observed % inhibition (AZT 30 nM, 4C 0 μM) was -437.4%, the Expected % inhibition (AZT 100 nM, 4C 0 μM) was -14.2% and the Observed % inhibition (AZT 100 nM, 4C 0 μM) was -14.2%. For the same compound, the Expected % inhibition (AZT 300 nM, 4C 0 μM) was -9.8%, the Observed % inhibition (AZT 300 nM, 4C 0 μM) was -9.8% and the Expected % inhibition (AZT 1000 nM, 4C 0 μM) was -7.7%. For the same compound, the Observed % inhibition (AZT 1000 nM, 4C 0 μM) was -7.7%.
Work on `CC(=O)N[C@H](CCCNC(=N)N)C(=O)N[C@H](CCCNC(=N)N)C(=O)N[C@H](CCCNC(=N)N)C(=O)N[C@H](CCCNC(=N)N)C(=O)N[C@H](CCCNC(=N)N)C(=O)N[C@H](CCCNC(=N)N)C(=O)N[C@H](CCCNC(=N)N)C(=O)N[C@H](CCCNC(=N)N)C(=O)N[C@H](CCCNC(=N)N)C(N)=O` [4C, acetyl-[D-Arg]9 -NH2] yielded an Expected % inhibition (AZT 0 nM, 4C 0.001 μM) of -412.7%, an Observed % inhibition (AZT 0 nM, 4C 0.001 μM) of -412.7% and an Expected % inhibition (AZT 0 nM, 4C 0.003 μM) of -256.2%. For the same compound, the Observed % inhibition (AZT 0 nM, 4C 0.003 μM) was -256.2%, the Expected % inhibition (AZT 0 nM, 4C 0.01 μM) was -22.8% and the Observed % inhibition (AZT 0 nM, 4C 0.01 μM) was -22.8%. The Expected % inhibition (AZT 0 nM, 4C 0.03 μM) was 5.9%, the Observed % inhibition (AZT 0 nM, 4C 0.03 μM) was 5.9% and the Expected % inhibition (AZT 0 nM, 4C 0.1 μM) was -177.0%. It also gave an Observed % inhibition (AZT 0 nM, 4C 0.1 μM) of -177.0%, an Expected % inhibition (AZT 0 nM, 4C 0.3 μM) of 25.5% and an Observed % inhibition (AZT 0 nM, 4C 0.3 μM) of 25.5%. The Expected % inhibition (AZT 0 nM, 4C 10 μM) was 21.9%, the Observed % inhibition (AZT 0 nM, 4C 10 μM) was 21.9% and the Expected % inhibition (AZT 0 nM, 4C 30 μM) was 26.5%. The Observed % inhibition (AZT 0 nM, 4C 30 μM) was 26.5%.
